Measured values taken from US11572341B2, “Biguanide compound and use thereof” (ImmunoMet Therapeutics Inc., priority 2014, dated 2023).

How the values were obtained:
AMPKa [pT172] = test: AMPKa activation [pT172] in MCF7 cell; assay type: cell-based
HCT116 cells = test: Inhibitory effect against cancer cell proliferation (MTT); assay type: cell-based, human; conditions: Homo sapiens, HCT-116; HCT116, MTT, 48 hours; read-out: IC50 (uM) @ HCT116
Experimental: The formazane crystals thus formed were dissolved using dimethyl sulfoxide (DMSO) and absorbance of the solution was measured at 560 nm. After culturing for 48 hours, […] synthesized in Examples was indicated as cell viability (%) according to each treated concentration.

Row | SMILES | IC50 (HCT116 cells) [µM] | AMPKa activation [pT172] (Unit/ml) @ MCF7 cell (AMPKa [pT172]; 5 uM) [Unit/ml] | AMPKa activation [pT172] (Unit/ml) @ MCF7 cell (AMPKa [pT172]; 10 uM) [Unit/ml] | AMPKa activation [pT172] (Unit/ml) @ MCF7 cell (AMPKa [pT172]; 50 uM)
1 | Cl.N=C(N)NC(=N)NCc1ccc(C(F)(F)F)cc1 [Example 141, N1-(4-trifluoromethyl)benzyl Biguanide Hydrochloride] | > 100 | 5.6 | 6.1 | 10.3 Unit/ml
2 | Cl.N=C(N)NC(=N)NCCc1ccc(Cl)cc1 [Example 137, N1-(4-chloro)phenethyl Biguanide Hydrochloride] | > 100 | 4.1 | 7.3 | 11.9 Unit/ml
3 | Cl.N=C(N)N/C(=N/c1ccc(Br)cc1)NCCc1ccccc1 [Example 95, N1-phenethvl-N2-(4-bromo)phenyl Biguanide Hydrochloride] | 14.1 | 4.9 | 6.8 | 23.6 Unit/ml
4 | Cl.N=C(NC(=N)N1CCCCC1)Nc1ccc(N2CCOCC2)cc1 [Example 71, N1-piperidin-N5-(4-morpholin-4-yl)phenyl Biguanide Hydrochloride] | > 100 | 3.8 | 4.3 | 5.8 Unit/ml
5 | CC(=O)c1ccc(NC(=N)NC(=N)N2CCCC2)cc1.Cl [Example 70, N1-pyrrolidin-N5-(4-acetyl)phenyl Biguanide Hydrochloride] | > 100 | 3.5 | 4.0 | 5.4 Unit/ml
6 | CCCCCCN(CCCCCC)C(=N)NC(=N)N.Cl [Example 133, N1,N1-dihexyl Biguanide Hydrochloride] | > 100 | – | – | 7.1 Unit/ml
7 | Cl.N=C(NC(=N)N1CC=CC1)N1CC=CC1 [Example 67, N1-2,5-dihydro-1H-pyrrol-N5-2,5-dihydro-1H-pyrrole Biguanide Hydrochloride] | 147 | 3.2 | 2.9 | 4.8 Unit/ml
8 | CC(C)NC(=N)NC(=N)Nc1ccc(Cl)cc1.Cl [Example 17, N1-isopropyl-N5-(4-chloro)phenyl Biguanide Hydrochloride] | 35.1 | 10.2 | 10.8 | 55.7 Unit/ml
9 | Cl.N=C(NC1=NC(=O)CCN1)N1CCCCC1 [Example 156, N-(4-oxo-1,4,5,6-tetrahydropyrimidin-2-yl)piperidin-1-carboximidamide Hydrochloride] | > 100 | 3.6 | 2.6 | 4.9 Unit/ml
10 | Cl.N=C(NCc1cccc(C(F)(F)F)c1)NC(=N)Nc1cccnc1 [Example 43, N1-3-pyridin-N5-(3-trifluoromethyl)benzyl Biguanide Hydrochloride] | 100 | 3.0 | 4.3 | 7.6 Unit/ml
11 | CCCN(CCC)C(=N)NC(=N)N(C1CCCCC1)C1CCCCC1.Cl [Example 15, N1,N1-dipropyl-N5,N5-dicyclohexyl Biguanide Hydrochloride] | > 100 | – | – | 6.1 Unit/ml
12 | CC1CCN(C(=N)NC(=N)Nc2cccc(OC(F)(F)F)c2)CC1.Cl [Example 49, N1-(4-methy)piperidin-N5-(3-trifluoromethoxy)phenyl Biguanide Hydrochloride] | 5.1 | 9.3 | 13.7 | cell death
13 | Cl.N=C(N)NC(=N)N(Cc1ccccc1)Cc1ccccc1 [Example 130, N1,N1-dibenzyl Biguanide Hydrochloride] | > 100 | – | – | 8.8 Unit/ml
14 | Cl.N=C(NC(=N)N1CCCC1)Nc1ccc(F)c(Cl)c1 [Example 77, N1-pyrrolidin-N5-(3-chloro-4-fluoro)phenyl Biguanide Hydrochloride] | 50.6 | 4.5 | 5.7 | 13.9 Unit/ml
15 | Cl.N=C(N)N/C(=N/CCc1ccccc1)Nc1ccccc1 [Example 94, N1-phenyl-N2-phenethyl Biguanide Hydrochloride] | 105 | – | – | 9.0 Unit/ml
16 | CCOC1CCN(C(=N)NC(=N)Nc2cccc(C(F)(F)F)c2)CC1.Cl [Example 24, N1-(4-ethoxy)piperidin-N5-(3-trifluoromethyl)phenyl Biguanide Hydrochloride] | 11.5 | 5.2 | 4.7 | cell death
17 | Cl.N=C(N)NC(=N)NCc1ccc(OC(F)(F)F)cc1 [Example 142, N1-(4-trifluoromethoxy)benzyl Biguanide Hydrochloride] | 73.6 | 4.7 | 6.0 | 7.2 Unit/ml
18 | Cl.N=C(NC(=N)N1CC=CCC1)N1CC=CCC1 [Example 68, N1-1,2,3,6-tetrahydropyridin-N5-1,2,3,6-tetrahydropyridine Biguanide Hydrochloride] | > 100 | 4.2 | 4.4 | 4.4 Unit/ml

Now from value to compound, other results behind:

Row | IC50 (HCT116 cells) [µM] | SMILES | AMPKa activation [pT172] (Unit/ml) @ MCF7 cell (AMPKa [pT172]; 5 uM) [Unit/ml] | AMPKa activation [pT172] (Unit/ml) @ MCF7 cell (AMPKa [pT172]; 10 uM) [Unit/ml] | AMPKa activation [pT172] (Unit/ml) @ MCF7 cell (AMPKa [pT172]; 50 uM)
19 | 12.6 | CC1CCN(C(=N)NC(=N)NCc2ccc(C(F)(F)F)cc2)CC1.Cl [Example 61, N1 (4-methyl)piperidin-N5-(4-trifluoromethyl)benzyl Biguanide Hydrochloride] | 6.4 | 11.8 | 12.3 Unit/ml
20 | > 100 | CN1CCN(C(=N)NC(=N)NCc2cccc(C(F)(F)F)c2)CC1.Cl [Example 20, N1-(4-methyl)piperazin-N5-(3-trifluoromethyl)benzyl Biguanide Hydrochloride] | 2.9 | 4.5 | 5.6 Unit/ml
21 | 118 | CCCNC(=N)NC(=N)N.Cl [Example 114, N1-propyl Biguanide Hydrochloride] | – | – | 6.1 Unit/ml
22 | 48.8 | CC1CCN(C(=N)NC(=N)Nc2ccc(F)cc2)CC1.Cl [Example 56, N1-(4-methyl)piperidin-N5-(4-fluoro)phenyl Biguanide Hydrochloride] | 2.7 | 4.8 | 15.4 Unit/ml
23 | > 100 | CC1CCN(C(=N)NC(=N)Nc2ccc(CCN)cc2)CC1.Cl [Example 69, N1-(4-methyl)piperidin-N5-(4-aminoethyl)phenyl Biguanide Hydrochloride] | 5.6 | 4.7 | 5.3 Unit/ml
24 | 15.4 | CC1CCN(C(=N)NC(=N)NCc2cccc(C(F)(F)F)c2)CC1.Cl [Example 60, N1-(4-methyl)piperidin-N5-(3-trifluoromethyl)benzyl Biguanide Hydrochloride] | 4.6 | 7.8 | 20.9 Unit/ml
25 | > 100 | CN1CCN(C(=N)NC(=N)NCc2ccc(C(F)(F)F)cc2)CC1.Cl [Example 18, N1-(4-methyl)piperazin-N5-(4-trifluoromethyl)benzyl Biguanide Hydrochloride] | 7.1 | 8.6 | 13.3 Unit/ml
26 | > 100 | CN1CCN(C(=N)NC(=N)Nc2ccc(F)cc2)CC1.Cl [Example 33, N1-(4-methyl)piperazin-N5-(4-fluoro)phenyl Biguanide Hydrochloride] | 3.8 | 3.3 | 4.3 Unit/ml
27 | 8.6 | CC1CCN(C(=N)NC(=N)Nc2ccc(Br)cc2)CC1.Cl [Example 48, N1-(4-methyl)piperidin-N5-(4-bromo)phenyl Biguanide Hydrochloride] | 4.3 | 6.8 | cell death
28 | > 100 | CN1CCN(C(=N)NC(=N)Nc2ccccc2F)CC1.Cl [Example 34, N1-(4-methyl)piperazin-N5-(2-fluoro)phenyl Biguanide Hydrochloride] | 4.5 | 3.7 | 7.0 Unit/ml
29 | > 100 | CCCCNC(=N)NC(=N)N1CCN(C)CC1.Cl [Example 36, N1-(4-methy)piperazin-N5-butyl Biguanide Hydrochloride] | 5.5 | 5.8 | 4.8 Unit/ml
